# Reference: ChEMBL document CHEMBL1201862, “PubChem BioAssay data set” (2004)
# Where “and” joins values, the source holds several entries; their conditions need not be identical. Identical values can stand only once.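 Cultured in 96-well plates, cells were exposed to test compound for 48 hours across five concentrations. Abbreviation: GI50, concentration required for 50% inhibition of growth.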 Calls of active or inactive are those of the source. No stated cut-off is given here; in the data, active = GI50 up to about 1.1 µM and inactive = higher.
# Tests used:
# Assay in all cases: inhibition of tumour cell growth, NCI panel, 48 h
# [1] = system: Hs-578T
# [2] = system: SNB-78
# [3] = system: DMS-114
# [4] = system: KM-20L2
# [5] = system: M19-MEL
# [6] = system: DLD-1
# [7] = system: XF498
# [8] = system: DMS-273
smiles,measurement,setting,value
Oc1ccccc1C(c1cc2c(cc1O)OCO2)N1CCOCC1 (configuration not stated),GI50,[1],19.5 µM (inactive)
CC1(C)CCCC2(C)C3C(O)CC2(C)C(O)C31 (configuration not stated),GI50,[2],> 100 µM (inactive)
same,GI50,[3],> 100 µM (inactive)
same,GI50,[4],> 100 µM (inactive)
same,GI50,[5],> 100 µM (inactive)
same,GI50,[6],> 100 µM (inactive)
same,GI50,[7],> 100 µM (inactive)
COc1cccc2cc(C(C)=O)c(=O)oc12,GI50,[1],> 100 µM (inactive)
O=C(O)C12C3CCC(O3)C1(C(=O)O)C1CCC2O1 (configuration not stated),GI50,[1],> 100 µM (inactive) and 98.2 µM (inactive)
Cc1ccc(S(=O)(=O)N2CCSCCSCCSCCSCC2)cc1,GI50,[1],> 23.3 µM (inactive)
Cc1ccc2c(c1)S(=O)(=O)c1ccc3ccccc3c1N2,GI50,[1],> 100 µM (inactive)
O=C(Nc1cc(Cl)c(Cl)cc1Cl)C(=O)C(C(=O)c1ccc(Cl)c(Cl)c1)C1OC(=O)c2ccccc21 (configuration not stated),GI50,[2],31.8 µM (inactive)
same,GI50,[3],13.7 µM (inactive)
same,GI50,[4],17.7 µM (inactive)
same,GI50,[5],17.6 µM (inactive)
same,GI50,[6],8.47 µM (inactive)
same,GI50,[8],16.9 µM (inactive)
C1=CC2=CC=CC3c4nc5ccc6ccccc6c5nc4C(=C1)C23 (configuration not stated),GI50,[1],> 100 µM (inactive)
CC(C)(C)C1=Nc2c(Br)cc(C(C)(C)C)cc2C(C(F)(F)F)(C(F)(F)F)O1,GI50,[2],> 100 µM (inactive)
same,GI50,[3],31.6 µM (inactive)
same,GI50,[4],> 100 µM (inactive)
same,GI50,[5],72.6 µM (inactive)
same,GI50,[6],> 100 µM (inactive)
same,GI50,[8],46 µM (inactive)
same,GI50,[7],19 µM (inactive)
COc1cc2c(c(O)c1OC)C(=O)[C@@H]1CCC(=O)N1C2,GI50,[1],> 100 µM (inactive)
O=C1COc2ccc([N+](=O)[O-])cc2C(=O)C1,GI50,[1],> 10 µM (inactive)
COc1ccc(OC)c(C2Cc3cnc4nc(N)nc(N)c4c3C2)c1 (configuration not stated),GI50,[1],30.6 µM (inactive)
O=C1C(=Cc2c(O)cc(O)cc2O)C(=O)c2ccccc21,GI50,[2],23.8 µM (inactive)
same,GI50,[3],> 100 µM (inactive)
same,GI50,[4],> 43.5 µM (inactive)
same,GI50,[5],> 38.5 µM (inactive)
same,GI50,[6],> 40.6 µM (inactive)
same,GI50,[8],> 100 µM (inactive)
CC1=CC2C3(C)C(C)(C(C)=CP3(=O)c3c(C(C)C)cc(C(C)C)cc3C(C)C)C1P2(=O)c1c(C(C)C)cc(C(C)C)cc1C(C)C (configuration not stated),GI50,[1],2.28 µM (inactive)
N#C/C(=C1\OC(=N)C(c2ccccc2)C1=O)c1ccccc1 (configuration not stated),GI50,[2],> 77.1 µM (inactive)
same,GI50,[3],29.5 µM (inactive)
same,GI50,[4],98.6 µM (inactive)
same,GI50,[5],24 µM (inactive)
same,GI50,[6],18.3 µM (inactive)
same,GI50,[8],49.9 µM (inactive)
same,GI50,[7],16.9 µM (inactive)
COC1/C=C/C(C)C(OC)CC(O)/C=C/C(C)C(C(C)C(OC)C(C)CCC(=O)C(C)C(C/C=C/N(C)C=O)OC)OC(=O)/C=C/C=C(\C)CC(OC)CC2=CC(=O)O[C@@H](C(C)C(OC)C1)[C@H]2O (some centres not stated),GI50,[1],0.0809 µM (active)
O=C(O)C1C(C(=O)O)C23CC2(C(=O)O)C2(C(=O)O)CCC3=C3CCCC312 (configuration not stated),GI50,[1],2.67 µM (inactive)
CCOC(=O)/C(C(N)=O)=C(/O)c1cnccn1,GI50,[1],> 100 µM (inactive)
COc1ccc(NC(=O)CC/C(CC(=O)C(C)(C)C)=N\NC(=O)C(N)=O)cc1,GI50,[3],> 100 µM (inactive)
same,GI50,[4],> 100 µM (inactive)
same,GI50,[5],> 100 µM (inactive)
same,GI50,[6],> 100 µM (inactive)
N#C/C(=C/c1ccc2c(c1)OCO2)C(=O)c1ccccc1,GI50,[2],> 100 µM (inactive)
same,GI50,[4],> 100 µM (inactive)
same,GI50,[5],> 100 µM (inactive)
same,GI50,[6],> 100 µM (inactive)
same,GI50,[7],> 100 µM (inactive)
CC(=O)OC[C@H]1CN(OC(C)=O)C[C@@H](n2cc(C)c(=O)[nH]c2=O)O1,GI50,[1],> 100 µM (inactive)
O=C1CN(c2ccccc2)C(=O)CN1CCN1CC(=O)N(c2ccccc2)CC1=O,GI50,[1],> 100 µM (inactive)
CCOc1ccc(-n2c(=O)n3c(Nc4ccc(Cl)cc4)nc4c(c(=O)n(C)c(=O)n4C)n3c2=O)cc1,GI50,[1],33 µM (inactive)
CCOc1ccccc1/N=N/C1C(=O)N(C(=O)CC(=O)Nc2ccccc2OC)N=C1C (configuration not stated),GI50,[1],1.78 µM (inactive)
[O-][n+]1nc(N2CCOCC2)nc2ccccc21,GI50,[1],> 100 µM (inactive)
COc1ccc(NC(=O)CSc2nc(C)nc3c2sc(=S)n3-c2ccccc2)cc1,GI50,[1],3.75 µM (inactive)
COc1ccccc1NC(=O)C1=C(C)NC(C)=C(C(=O)Nc2ccccc2OC)C1C1=CC=COC1,GI50,[2],23.3 µM (inactive)
same,GI50,[3],7.24 µM (inactive)
same,GI50,[4],6.07 µM (inactive)
same,GI50,[5],8.97 µM (inactive)
same,GI50,[6],11.5 µM (inactive)
same,GI50,[8],6.81 µM (inactive)
COc1ccc2c(c1)[C@@H]1c3cc(OC)c(OC)cc3CCN1CCC2,GI50,[1],> 100 µM (inactive)
Cc1nc(Cl)c(CBr)c(Cl)n1,GI50,[1],1.49 µM (inactive)
O=c1cc(-c2ccccc2)oc2cc(Oc3nnnn3-c3ccccc3)ccc12,GI50,[1],25.4 µM (inactive)
CC1(c2cccc(C3CC4(CCC3=O)OCCCCO4)c2)OCCO1 (configuration not stated),GI50,[2],> 100 µM (inactive)
same,GI50,[3],7.96 µM (inactive)
same,GI50,[4],> 100 µM (inactive)
same,GI50,[5],> 100 µM (inactive)
same,GI50,[6],> 100 µM (inactive)
same,GI50,[8],> 100 µM (inactive)
COCOC1C=CCCCC2=CC(C)=C(CC1)O2 (configuration not stated),GI50,[1],> 100 µM (inactive)
COc1cc(O)c2c(c1)OCC1(Cc3cc(OC)c(OC)cc31)C2=O (configuration not stated),GI50,[1],42.5 µM (inactive)
O=C(c1ccccc1)N1C(=O)N(c2ccccc2)C(=N/c2ccccc2)/C1=N\c1ccccc1,GI50,[1],20.3 µM (inactive)
CS(=O)(=O)Nc1ccc(NCc2c[nH]c3ccc4ncccc4c23)cc1,GI50,[1],22.3 µM (inactive)
O=c1[nH]nc(Nc2ccc(Cl)cc2)c2nnn(C3CCCCC3)c12,GI50,[1],34.5 µM (inactive)
Cc1ccc(S(=O)(=O)OCC/C(=C\[Si](C)(C)C)c2ccccc2)cc1,GI50,[3],> 100 µM (inactive)
same,GI50,[4],> 100 µM (inactive)
same,GI50,[5],> 100 µM (inactive)
same,GI50,[6],> 100 µM (inactive)
same,GI50,[8],> 100 µM (inactive)
same,GI50,[7],> 100 µM (inactive)
CC1(C)CO[P@@](=S)(c2ccccn2)O[C@@H]1c1ccccc1,GI50,[1],> 100 µM (inactive)
C/C(N)=C/C(=O)c1[nH]c(C(=O)O)cc1C1CCN(Cc2ccccc2)C1=O (configuration not stated),GI50,[1],27.9 µM (inactive)
CC1OC(OC2C(O[C@H]3CC[C@@H]4C(=CC[C@@H]5[C@@]4(C)C(=O)C[C@]4(C)[C@@H]([C@H](C)CC[C@@H](O)C(C)(C)O)CC[C@@]54C)C3(C)C)OC(CO)C(O)C2O)C(O)C(O)C1O (some centres not stated),GI50,[1],> 100 µM (inactive)
COc1ccc(OC)c2cc(C3(C)SCCCS3)ccc12,GI50,[2],45.9 µM (inactive)
same,GI50,[3],92.5 µM (inactive)
same,GI50,[4],81.7 µM (inactive)
same,GI50,[5],> 100 µM (inactive)
same,GI50,[6],> 100 µM (inactive)
same,GI50,[8],79.6 µM (inactive)
same,GI50,[7],61.7 µM (inactive)
COc1cc(CCCOC(=O)/C=C/c2ccc(O)c(O)c2)cc(O)c1O,GI50,[1],35.6 µM (inactive)
CN(CCCCCl)P(=O)(OCc1ccc([N+](=O)[O-])o1)OCC1OC(n2ccc(N)nc2=O)C(O)C1O (configuration not stated),GI50,[1],1.26 µM (inactive)
Fc1cccc(Cl)c1C1SCc2nc3cc4ccccc4cc3n21 (configuration not stated),GI50,[1],28.7 µM (inactive)
CC(=O)c1ccc(/N=N/c2ccc3nonc3c2N)cc1,GI50,[1],> 100 µM (inactive)
COc1cccc(C2c3cc4c(cc3OC(N3CCCCC3)C2C)OCO4)c1OC (configuration not stated),GI50,[1],4.31 µM (inactive)
COC(=O)C1=COC(C)C2C[n+]3ccc4c([nH]c5ccccc54)c3CC12 (configuration not stated),GI50,[1],> 100 µM (inactive)
COc1ccc(CCN2CCN(CCc3ccc(OC)cc3)CC2)cc1,GI50,[1],> 100 µM (inactive)
NC(=O)CC(N)C(N)=O (configuration not stated),GI50,[1],> 100 µM (inactive)
OCCN1CN(c2nc(N3CN(CCO)C3)nc(N3CN(CCO)C3)n2)C1,GI50,[1],35.2 µM (inactive)
N#C[BH2-][n+]1ccc(C(=O)NNCc2ccc(F)cc2)cc1,GI50,[1],> 100 µM (inactive)
COc1ncn(C2C=C(CO)C(O)C2O)c(=O)n1 (configuration not stated),GI50,[2],> 100 µM (inactive)
same,GI50,[3],> 100 µM (inactive)
same,GI50,[4],> 100 µM (inactive)
same,GI50,[6],> 100 µM (inactive)
same,GI50,[8],> 100 µM (inactive)
Nc1ccc([As](=O)(O)O)cc1 [ARSANILIC ACID],GI50,[1],> 100 µM (inactive)
